Reference: ChEMBL document CHEMBL1145413, “Dehydroxychlorofusarielin B, an antibacterial polyoxygenated decalin derivative from the marine-derived fungus Aspergillus sp” (2007)
Values after ≈ are worked out from the molar mass of the structure shown.

Key:
Assay type in all cases: functional
[1] = tested on: Staphylococcus aureus; experiment: Antibacterial activity against Staphylococcus aureus after 18 hrs by dilution method
[2] = tested on: Staphylococcus aureus; experiment: Antibacterial activity against multidrug-resistant Staphylococcus aureus after 18 hrs by dilution method
[3] = tested on: Staphylococcus aureus; experiment: Antibacterial activity against methicillin-resistant Staphylococcus aureus after 18 hrs by dilution method

| Structure (SMILES) | MIC [1] | MIC [2] | MIC [3] |
| --- | --- | --- | --- |
| C/C=C(\C)[C@H]1[C@@H](/C=C/C=C(\C)[C@@H](O)[C@@H](C)CO)[C@@H]2C[C@@H]3O[C@]3(C)C[C@H]2[C@@H]2O[C@@]21C [FUSARIELIN A] | 32.5 µg/mL (≈ 80.7 µM) | 62.5 µg/mL (≈ 155 µM) | 32.5 µg/mL (≈ 80.7 µM) |
| C/C=C(\C)[C@H]1[C@@H](/C=C/C=C(\C)[C@@H](O)[C@@H](C)CO)[C@@H]2C[C@@H](O)[C@](C)(O)C[C@H]2[C@@H]2O[C@@]21C [FUSARIELIN B] | 62.5 µg/mL (≈ 149 µM) | 62.5 µg/mL (≈ 149 µM) | 62.5 µg/mL (≈ 149 µM) |
| C/C=C(\C)[C@H]1[C@@H](/C=C/C=C(\C)[C@@H](O)[C@@H](C)CO)[C@@H]2C[C@@H](Cl)[C@](C)(O)C[C@H]2[C@@H]2O[C@@]21C [DEHYDROXYCHLOROFUSARIELIN B] | 62.5 µg/mL (≈ 142 µM) | 62.5 µg/mL (≈ 142 µM) | 62.5 µg/mL (≈ 142 µM) |
